Measurements from PubChem BioAssay AID463074 (Broad Institute, 2010).
Activity calls are given as the source filed them.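 How the source made its calls: active means AC50 no more than tenfold above the top dose tested, or full inhibition at every dose with a flat fit (cut at about 19 µM in these data); inconclusive means flat curve fit with inhibition between 30% and 70%, or poor fit; inactive means AC50 more than tenfold above the top dose tested.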

System: HMLE_sh_eGFP viability, CellTiter-Glo luminescence, 72 h
Test: cytotoxicity in HMLE control line with eGFP shRNA, dose response, counter-screen for HMLE_sh_ECad selective toxicity project, cell-based, HMLE_sh_eGFP, luminescence (AID 463074);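 further: counterscreen control line to flag general toxicity for the HMLE_sh_ECad screen; potency for loss of viability as luminescence drops below DMSO wells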

Row | Compound | AC50
1 | CCC(C)Sc1ccc(-c2nc3cnccn3c2NC2CCCCC2)cc1 (stereo not given) | 3.73 µM
2 | COc1cccc(S(=O)(=O)NCc2ccc(C(=O)Nc3cccc(Cl)c3)cc2)c1 | 4.74 µM
3 | CCOC(=O)Nc1ccc2nc(Sc3ccc(Cl)cc3)sc2c1 | 2.97 µM
4 | CC(=O)Nc1ccc(SCC(=O)c2cc(C)n(-c3ccccc3)c2C)cc1 | 13.3 µM
5 | COc1ccc(CCNC(=O)c2coc(=O)c(Br)c2)cc1 | 15 µM
6 | Cc1ccc(C(=O)C(C(=O)/C=C/c2ccccc2)=C2SCCCS2)cc1 | 1.56 µM
7 | COC(=O)c1ccc(/C=C/c2c(-c3ccsc3)sc3ccccc23)cc1 | 7.46 µM
8 | COC(=O)c1cc(NC(=O)c2cc(-c3ccccc3Cl)oc2C(F)(F)F)ccc1N1CCOCC1 | 20.3 µM
9 | O=C(Nc1ccn(Cc2ccccc2F)n1)c1ccc(COc2ccc(Cl)cc2Cl)o1 | > 19.5 µM (inactive)
10 | CC(C)CCNc1nc(-c2ccco2)c2c(c1C#N)CCCC2 | 11.3 µM
11 | O=C(Nc1ccc(O)cc1)c1ccc(NC(=O)c2cccs2)cc1 | 10 µM
12 | COc1ccc2cc1Oc1ccc(cc1)C[C@H]1c3c(cc(OC)c4c3Oc3c(ccc5c3[C@H](C2)N(C)CC5)O4)CCN1C | 3.63 µM
13 | COc1cc(OC)cc(-c2cc3ccc(OC)cc3cn2)c1 | 5.43 µM
14 | O=C1/C(=C\c2cccnc2)CN(Cc2ccccc2)C/C1=C\c1cccnc1 | 3.9 µM
15 | COC(=O)c1ccc(COc2ccccc2/C=C(\C#N)C(=O)Nc2c(C)cccc2C)cc1 | 2.86 µM
16 | COc1ccc(-c2cc(=O)n(-c3ccc([N+](=O)[O-])cc3)[nH]2)cc1 | 11.3 µM
17 | CCOC(=O)N1CCN(S(=O)(=O)c2ccc(C(=O)NNc3nc4cc(C)cc(C)c4s3)cc2)CC1 | 3.7 µM
18 | Cc1ccc(C(=O)Nc2ncc(Cc3ccccc3)s2)o1 | 1 µM
19 | Cc1cc(Nc2cccc([N+](=O)[O-])c2)n2c(nc3ccccc32)c1C#N | 9.61 µM
20 | CC/C(=N\Nc1ccccc1)c1c(O)n(-c2ccccc2)c(=O)[nH]c1=O | 2.16 µM
21 | COc1ccccc1-c1sc2ccccc2c1C#CC1(O)CCCCC1 | 10.8 µM
22 | COc1ccc2sc(-c3ccc(SC)cc3)c(C#CC(C)(C)O)c2c1 | 6.66 µM
23 | Cn1cnc(Sc2ncnc3nc[nH]c23)c1[N+](=O)[O-] | 3.26 µM
24 | C/C(=N\Nc1ccccc1)c1c(O)[nH]c(=O)[nH]c1=O | 2.25 µM
25 | COc1cc2sc(-c3ccccc3OC)c(-c3ccc(OCCN4CCCCC4)cc3)c2cc1OC | 4.24 µM
26 | CC(NCc1ccc(OCc2ccc(Cl)cc2)cc1)C(O)c1ccccc1 (stereo not given) | 3.57 µM
27 | Cc1ccc(C)c(OCCCCN2CCNCC2)c1C | 6.15 µM

Row | Compound | AC50
28 | Oc1cccc(/C=C/c2ccc3cccc(O)c3n2)c1 | 4.83 µM
29 | Nc1ccc(CCN2CCN(c3cccc(C(F)(F)F)c3)CC2)cc1 | 1.42 µM
30 | Cc1ccc(-c2cc(C(=O)N/N=C/c3ccccc3O)n[nH]2)o1 | 10.2 µM
31 | O=C(NCc1cccnc1)c1ccc(NC(=O)c2ccc(Br)cc2)cc1 | 3.11 µM
32 | O=C(N/N=C/c1cc(Cl)ccc1O)C(=O)Nc1ccccc1OC(F)(F)C(F)F | 3.9 µM
33 | Cc1cccn2c(/C=N/OCc3cccc(F)c3)c(-c3ccc(Cl)cc3)nc12 | 10.5 µM
34 | CC(NC(=O)c1ccc(N2CCNCC2)c([N+](=O)[O-])c1)C12CC3CC(CC(C3)C1)C2 (stereo not given) | 6.64 µM
35 | C=CCCC(=O)Nc1nc(C)c(-c2csc(Nc3ccc(Cl)cc3)n2)s1 | 3.83 µM
36 | Cc1ccc(NNC(=O)c2ccno2)cc1Cl | 4 µM
37 | Cc1ccc(C(C[N+](=O)[O-])n2nc(C)cc2C)cc1 (stereo not given) | 6.74 µM
38 | COc1ccc(C2=Nn3c(nnc3-c3ccccc3F)SC2)cc1OC1CCCC1 | 5.54 µM
39 | O=C(Nc1ccc(Nc2ccccc2)cc1)c1cc([N+](=O)[O-])ccc1Cl | 10.6 µM
40 | Cc1c(O)cccc1C(=O)N[C@@H](CSc1ccccc1)[C@H](O)CN1C[C@H]2CCCC[C@H]2C[C@H]1C(=O)NC(C)(C)C | 7.33 µM
41 | CC(=O)Nc1ccc(SCC(=O)c2cc(C)n(Cc3cccs3)c2C)cc1 | 4.66 µM
42 | CN(C)C(=O)/C(C#N)=C\c1cc(Br)c(Sc2ccc(Cl)cc2)o1 | 4.46 µM
43 | Cn1c(-c2ccccc2)cnc1NCc1ccc(-c2ccccc2)cc1 | 0.683 µM
44 | O=C1NC(c2ccc(-c3ccccc3[N+](=O)[O-])o2)C(C(=O)c2ccc(Cl)cc2)C(O)(C(F)(F)F)N1 (stereo not given) | 13.8 µM
45 | Cc1ccc(OCC(O)Cn2c3ccccc3c3ccccc32)cc1 (stereo not given) | 6.78 µM
46 | COc1ccc(-c2sc3ccccc3c2-c2ccc(OCCN3CCCCC3)cc2)cc1 | 1.4 µM
47 | O=C(/C=C/c1ccc2c(c1)OCO2)Nc1nc(-c2ccccc2)cs1 | 0.781 µM
48 | C=C1/C(=C\C=C2/CCC[C@]3(C)[C@@H]([C@H](C)/C=C/[C@@H](O)C4CC4)CC[C@@H]23)C[C@@H](O)C[C@@H]1O | 6.49 µM
49 | Oc1ccc(-c2cnc(-c3ccc(O)cc3)nc2)cc1 | 0.304 µM
50 | Clc1ccc(-c2nnnn2-c2ccc(Cl)c(Cl)c2)cc1Cl | 15.2 µM
51 | CC(C)n1cnc2c(NCc3ccccc3)cc(Cc3ccc(F)cc3)cc21 | 4.67 µM
52 | Cc1cc2nc(NCCCO)n(CC(=O)c3cc(C(C)(C)C)c(O)c(C(C)(C)C)c3)c2cc1C | 3.56 µM
53 | Cc1ccc(C(=O)NC2c3ccccc3-c3ccccc32)cc1 | 0.816 µM
54 | CC(C)c1nc2sc3ccccc3c(=O)c2c(=O)n1Cc1ccccc1 | 6.29 µM

Row | Compound | AC50
55 | C(=C\c1nc(N2CCCCCC2)c2ccccc2n1)/c1ccccc1 | 5.54 µM
56 | O=C1[C@H]2CCCC[C@H]2C(=O)N1CCCCN1CCN(c2nsc3ccccc23)CC1 | 4.51 µM
57 | COc1c(Cl)cc(Cl)cc1/C=C/C(=O)c1ccc(NC(=O)c2cccs2)cc1 | 1.31 µM
58 | Nc1nc(=S)c2ncn([C@@H]3O[C@H](CO)[C@@H](O)[C@H]3O)c2[nH]1 | 0.465 µM
59 | Cc1cc(N2CCCCC2)n2ncc(-c3ccc(Cl)cc3)c2n1 | 6.51 µM
60 | CCCCCCc1cc2cc(-c3nnc(-c4cc(OC)c(OC)c(OC)c4)o3)c(=O)oc2cc1O | 5.89 µM
61 | CN1CCN(CCCN2c3ccccc3Sc3ccc(Cl)cc32)CC1 | 5.25 µM
62 | Oc1ccc(Cl)cc1-c1cc(-c2cccc(Br)c2)n[nH]1 | 6.39 µM
63 | COc1ccc(CNC(=O)c2c(N)n(CCCN3CCOCC3)c3nc4ccccc4nc23)cc1 | 6.67 µM
64 | COc1ccc(-c2[nH]ncc2N=Nc2ccccc2)cc1 | 7.66 µM
65 | CC(=O)c1ccc(N2CCC(c3cc(-c4ccc(Cl)cc4Cl)n[nH]3)CC2)c([N+](=O)[O-])c1 | 4.17 µM
66 | O=C1C=C(Nc2ccc(F)cc2)c2ccccc2C1=O | 6.78 µM
67 | Cc1cccc(C(=O)NNC2=C(C(=O)C(F)(F)F)CCC2)c1O | 3.91 µM
68 | Cc1ccc(Cl)cc1NC(=S)N/N=C/c1cccc2ccccc12 | 0.298 µM
69 | COc1ccc(C(C)NCCC(c2ccc(OC(C)C)cc2)c2ccccc2OC)cc1 (stereo not given) | 5.44 µM
70 | N=c1c2c(ncn1Cc1ccco1)Oc1ccc3ccccc3c1C2c1ccccc1 (stereo not given) | 4.5 µM
71 | CC(C)(C)NC(=O)Cn1nnc(-c2ccc(OCc3c(F)cccc3Cl)cc2)n1 | 1.79 µM
72 | CCOC(=O)c1c(NC(=O)C2COc3ccccc3O2)sc2c1CC(C)(C)NC2(C)C (stereo not given) | 9.86 µM
73 | COc1ccc(-c2ccc(C)cc2)cc1[C@H]1[C@@H]2C=CCC[C@@]2(C)C(=O)N1Cc1ccccc1 | 3.87 µM
74 | O=C(NCc1ccco1)c1cc(-c2ccc3c(c2)OCO3)on1 | 0.973 µM
75 | CCCc1c(-c2ccc(O)cc2)nn(-c2ccc(O)cc2)c1-c1ccc(O)cc1 | 6.1 µM
76 | Cc1ccccc1C(=O)N1CCN(c2ccc(NC(=O)c3ccc([N+](=O)[O-])o3)cc2)CC1 | 4.37 µM
77 | COc1cccc(/C=C/C(=O)c2ccc(NS(=O)(=O)c3ccc(C)cc3)cc2)c1 | 3.22 µM
78 | CC(=O)[C@@]1(O)C(C)CC2C3C=C(C)C4=Cc5c(cnn5-c5ccccc5)C[C@]4(C)C3C(O)C[C@@]21C (stereo not given in full) | 4.03 µM
79 | COc1ccc(/C=N/NC(=O)c2cc(C34CC5CC(CC(C5)C3)C4)[nH]n2)cc1O | 1.8 µM
80 | O/N=C/c1cc(Cl)ccc1OCc1ccccc1Cl | 6.08 µM
81 | CCCOc1ccc2c(c1)C(=NN=C(N)N)c1cc(OCCC)ccc1-2 | 3.7 µM

Row | Compound | AC50
82 | CCc1ccc(-c2cc(C(=O)N3N=C(C(F)F)CC3(O)C(F)F)c3ccccc3n2)cc1 (stereo not given) | 6.4 µM
83 | CCOc1cc(N2CCOCC2)c(OCC)cc1NC(=O)CN1CCC(Cc2ccccc2)CC1 | 2.43 µM
84 | Cc1ccc(C(C#N)c2ccc3c(C(F)(F)F)cc(C(F)(F)F)nc3n2)cc1 (stereo not given) | 2.56 µM
85 | Cc1c(O)cc2c(c1O)C(=O)CC(c1ccccc1)O2 (stereo not given) | 15.2 µM
86 | COc1cccc(-c2cc3nc4c(c(N5CCC6(CC5)OCCO6)n3n2)CCCC4)c1 | 9.81 µM
87 | CCOC(=O)/C(C#N)=C1\Nc2ccccc2N=C1N(CC(C)C)CC(C)C | 8.73 µM
88 | CN1CCN(C2=Cc3cc(Cl)ccc3Sc3cc(F)ccc32)CC1 | 7.29 µM
89 | O=C(CNC(=O)C(c1ccccc1)c1ccccc1)N/N=C/c1ccc(O)cc1O | 1.88 µM
90 | Cc1ccc(C2C(/C=C3/SC(=S)NC3=O)=C(c3cccs3)Oc3ccccc32)cc1 (stereo not given) | 1.21 µM
91 | OC(COCC(F)(F)C(F)(F)C(F)(F)C(F)F)Cn1c2ccccc2c2ccccc21 (stereo not given) | 6.63 µM
92 | CN(C)CCCn1c(=S)[nH]c2sc3c(c2c1=O)CCCC3 | > 19.5 µM (inactive)
93 | CC(C)c1ccc(/C=N/NC(=O)c2ccccn2)cc1 | > 19.5 µM (inactive)
94 | COc1ccc(-n2c(Cc3cccn3C)nnc2SCC(=O)Nc2cccc(Cl)c2)cc1 | > 19.5 µM (inactive)
95 | O=C(CN1CCCCCC1)Nc1ccccc1Oc1ccccc1 | 0.808 µM
96 | Cc1onc(-c2c(Cl)cccc2Cl)c1C(=O)NNc1ccccc1 | 2.09 µM
97 | C/C(=N\NC(=O)c1nnn(-c2nonc2N)c1CN1CCCCC1)c1ccccc1O | 4.26 µM
98 | Cc1ccnc(NC(=O)CSc2cc(=O)n(C)c3ccccc23)c1 | 8.16 µM
99 | COc1cc(NS(C)(=O)=O)ccc1Nc1c2ccccc2nc2ccccc12 | 2.11 µM
100 | Cc1ccc(/C=N/Nc2cc(C)nc(NCc3ccccc3)n2)cc1 | 7.16 µM
101 | CCc1ccc(-c2cc(C(=O)N/N=C/c3c[nH]c4ccccc34)[nH]n2)cc1 | 12.6 µM
102 | CCCc1nc2ccccc2c(C(=O)OCC(=O)Nc2ccc(S(=O)(=O)N3CCOCC3)cc2)c1CC | 5.86 µM
103 | O=C(CN1CCCc2ccccc21)N/N=C/c1c(O)ccc2ccccc12 | 2.7 µM
104 | C=CCn1c(CNc2ccc(C)cc2)nnc1SCC(=O)N/N=C/c1ccc(O)cc1O | 2.97 µM
105 | NC(=O)c1ccc(NC(=O)COC(=O)c2c3c(nc4ccccc24)/C(=C\c2cccs2)CCC3)cc1 | 10.3 µM
